{"source": "patent US10881613B2", "about": "“Fumarate polymersomes” (UCL BUSINESS LTD, priority 2016, dated 2021)", "origin": "cited, not measured here", "conditions": "in vivo", "data": [{"smiles": "CC(O)CO", "note": "(stereo not shown) [Propylene glycol]", "values": [{"measurement": "half life (metabolized by the liver)", "result": 2, "unit": "h"}]}]}
